Results published in article PMC7607171, “Optimized low‐dose combinatorial drug treatment boosts selectivity and efficacy of colorectal carcinoma treatment” (Molecular Oncology, 2020).
Where “and” joins values, the source holds several entries; their conditions need not be identical. Identical values can stand only once. Like-named read-outs stand apart in the source and are kept apart here.

Key:
[1] = 0-24h, oral, cited from earlier work
SW620 tumors = assay: Subcutaneous xenograft tumor growth; type: in vivo, Swiss nu/nu mice
Experimental: All procedures including animal use were performed in accordance with the Institutional Ethical Committee of Animal Care in Geneva and the Swiss Cantonal Veterinary Office (Authorization number GE‐136‐19). Briefly, female and male Swiss nu/nu mice aged 6–8 weeks were obtained from Charles River (Écully, France). For subcutaneous xenografts mice were inoculated in the left flank with 5x10^6 DLD1 or SW620 cells suspended in 100 µL of cell culture medium, supplemented with 1% FBS. Treatment was initiated when palpable tumors had formed (approximately 30 mm^3) on day 4 for DLD1 and day 5 for the SW620 model.
Treatment was initiated once tumor growth was confirmed with bioluminescence measurements. Drugs were administered through oral gavage based on average body weight of the males (100 µL/mouse) and females (80 µL/mouse) at various concentrations, see Tables S10 and S11.
Solution A: step (1) 30% PEG 400 + 5% propylene glycol + 0.5% Tween 80 and (2) 64.5% sterile H2O. Solution B: step (1) 10% DMSO, (2) 30% PEG 300 + 5% Tween 80 and (3) 55% sterile H2O. Vemurafenib was prepared 2x concentrated (half or three/sixth of total solution), and the remaining drugs were prepared 6x concentrated (one/sixth of total solution), after which drugs were diluted to prepare 1x drug concentrations for the ODC or single drugs using the other drugs or complete solvent solutions without drugs for lower concentrations. FOLFOX was administered as 6 mg/kg oxaliplatin two hours before administration of 90 mg/kg leucovorin and 50 mg/kg (DLD1) or 25 mg/kg (SW620) 5‐fluorouracil at day 1 and a repeat of 5‐fluorouracil dosing on day 2.
The Bliss independence model can be used to evaluate the drug interaction potential of a drug mixture. The model is based on the principle that each drug has an independent drug mechanism of action, but all contribute to a common result (e.g., cell death or tumor volume inhibition). The model is based on the probability theory and requires the drug activity of each drug at the selected dose to predict the inhibition rate (IR) at additive doses. For in vivo tumor volume results, we predicted the IR based on the fraction of tumor volume remaining after single‐drug treatment of each of the drugs vs 100% CTRL (F1,2,3,4), using the following formula: IR = […].

[2] = Pharmacokinetics, dried blood spot LC-MS/MS, mice with SW620 tumors; type: in vivo; settings: for Tmax / AUC(0-t) / Cmax: Swiss Nu/nu, mouse, whole blood (dried blood spot), po, 10 mg/kg, regorafenib 30, vemurafenib 75, GDC-0994 10 mg/kg; for AUC(0-t) / Cmax: whole blood, mean ± SD; for AUC(0-t): oral, read-out: AUC0-24h
Experimental: The pharmacokinetic (PK) study was performed using the dried blood spot method. Mice were treated with CTRL, ODCs, and corresponding monotherapies as described above. To determine the disposition in blood in the first 24h, blood samples (5 µL/mouse) were collected from the tail vein (n = 4 mice) at 2h, 4h, 8h, and 24h time points and transferred onto paper (a filter paper 903 protein saver card from Whatman (MA, USA)). A disk with the entire spot was punched from the paper card and transferred to the HPLC vial tube. Hundred µL of MeOH containing a mix of internal standards was added, and the tube was vortex‐mixed for about 1 min before injecting 10 µL into the LC‐MS/MS system. The LC‐MS/MS system consisted of an API 4,000 triple quadrupole mass spectrometer (AB sciex, Concord, ON, Canada) controlled by analyst 1.6.1 software. The mass spectrometer was operated in the multiple reaction monitoring (MRM) mode with positive electrospray ionization. The instrument was coupled with an Agilent series 1100 (Waldbronn, Germany) LC system. Chromatography was performed on a Phenomenex Kinetex C18 analytical column (50 mm x 2.1 mm, 2.6 um; Torrance, CA, USA). The flow rate was 0.5 mL/min using gradient elution conditions. The method was fully validated before application to this pharmacokinetic study.

[3] = Serum and intratumor drug concentration at experimental endpoint, SW620 model; type: in vivo, mice; settings: for concentration at 1 h / Kp at 1 h: Swiss Nu/nu, mouse, oral; for concentration at 1 h: 1h post-treatment at endpoint (day 19); for Kp at 1 h: tumor vs serum, read-out: ratio tumor vs serum; for Kp at 1 h / ratio ODC vs single drug: SW620 model
Experimental: At the experimental endpoint, plasma and tumors were collected 1h post‐treatment and part of the tumor tissue was used to determine the intratumor drug concentrations. Plasma and tumor samples were analyzed using the same LC‐MS/MS method used for drug determination in DBS. Before analysis, tumor tissues were homogenized in a 1 mL mixture of water/acetonitrile (30/70). Hundred uL of homogenates were transferred into new tubes and 50 µL of acetonitrile, as well as 50 µL of a mix of internal standards in MeOH were added. Tubes were vortexed and centrifuged for 10 min at 9,000 rpm. The supernatant (100 µL) was evaporated under nitrogen and reconstituted in 100 µL of acetonitrile with 0.1% formic acid/water with 0.1% formic acid (30/70). 10 µL was then injected into the LC‐MS/MS system. Plasma samples were spotted onto the same paper used for whole blood analysis and were extracted and analyzed using the same methods as used for DBS.

[4] = Clinical plasma pharmacokinetics in patients, plasma concentration limit calculation; type: in vivo; settings: average plasma concentration calculated from AUC0-24h in patients
Experimental: To select for clinically relevant doses, the clinically attainable drug concentration measured in the blood plasma of patients after treatment is used to calculate the concentration limit for in vitro experiments. […] The average drug concentration is calculated from the AUC0–24h and is implemented as the plasma concentration limit (PCL) which drug dose selection must remain below for in vitro experiments. If a drug is FDA approved, the AUC0–24h selected is the one corresponding to the recommended dose in clinical practice. If a drug is in clinical trials, the AUC0–24h selected is the one corresponding to the maximum tolerated dose in early stage clinical trials. Note, experiments were conducted with the most current PCL calculated from the AUC0–24h information available at the start of experiments (December 2017), see Table S4.

[5] = GDC-0994 10 mg/kg, Exp 6, Day 20
[6] = GDC-0994 10 mg/kg, Exp 8, Day 19
[7] = GDC-0994 20 mg/kg, Exp 4, Day 22
[8] = given as part of SW620-specific ODC

Cn1c(=O)n(-c2ccc(C(C)(C)C#N)cc2)c2c3cc(-c4cnc5ccccc5c4)ccc3ncc21 [BEZ-235]
AUC ([1]; 400 mg/kg once daily, ref 16): 741.3 ng·h/mL
AUC ([1]; 400 mg/kg once daily, ref 17): 1404.4 ng·h/mL

Cn1nccc1Nc1nccc(-c2ccn([C@H](CO)c3ccc(Cl)c(F)c3)c(=O)c2)n1 [GDC-0994, (S)-1-(1-(4-Chloro-3-fluorophenyl)-2-hydroxyethyl)-4-(2-((1-methyl-1H-pyrazol-5-yl)amino)pyrimidin-4-yl)pyridin-2(1H)-one]
% CTRL (tumor volume) (SW620 tumors; [5]): 56 33 15 % CTRL
Volume (SW620 tumors; [5]): 290 170 76 mm^3
% CTRL (tumor volume) (SW620 tumors; [6]): 56 18 7 % CTRL
Volume (SW620 tumors; [6]): 354 114 46 mm^3
% CTRL (tumor volume) (SW620 tumors; [7]): 62 31 22 % CTRL
Volume (SW620 tumors; [7]): 301 148 105 mm^3
Tmax [2, 8]: 2 h
AUC(0-t) [2, 8]: 45000 ± 9090 ng·h/mL
Cmax [2, 8]: 6610 ± 1110 ng/mL
Tmax ([2]; mono): 2 h
AUC(0-t) ([2]; mono): 31600 ± 4740 ng·h/mL
Cmax ([2]; mono): 6090 ± 1930 ng/mL
increase of AUC as part of the ODC vs single-drug treatment ([2]; mice bearing SW620 tumors, AUC0-24h): 1.4 x
concentration at 1 h ([3]; serum, 10 mg/kg, as part of ODC, regorafenib 30, selumetinib 0.2, vemurafenib 75, GDC-0994 10 mg/kg, read-out: concentration serum): 19400 ± 9390 ng/mL
concentration at 1 h ([3]; serum, 10 mg/kg, single drug, regorafenib 30, selumetinib 0.2, vemurafenib 75, GDC-0994 10 mg/kg, read-out: concentration serum): 15900 ± 9070 ng/mL
concentration at 1 h ([3]; tumor (SW620), as part of ODC, SW620 tumor, doses as E164, read-out: concentration tumor): 5560 ± 3000 ng/g
concentration at 1 h ([3]; tumor (SW620), single drug, SW620 tumor, doses as E164, read-out: concentration tumor): 12700 ± 2870 ng/g
Kp at 1 h ([3]; as part of ODC): 0.29
Kp at 1 h ([3]; single drug): 0.8
ratio ODC vs single drug ([3]; serum): 1.22
ratio ODC vs single drug ([3]; tumor): 0.44
PCL (plasma concentration limit) [4]: 2.02 µM and 2.0 µM

CC1(COc2ccc3c(c2)ncn3-c2ccc3cccc(N4CCC(N)CC4)c3n2)COC1 [crenolanib]
PCL (plasma concentration limit) [4]: 0.43 µM and 0.4 µM
AUC ([1]; 100 mg/kg twice daily): 3200 ng·h/mL
AUC ([1]; 200 mg/kg once daily): 4610 ng·h/mL

Clc1ccc(Nc2nnc(Cc3ccncc3)c3ccccc23)cc1 [vatalanib]
PCL (plasma concentration limit) [4]: 8.31 µM and 8.3 µM
AUC ([1]; 1,000 mg/kg once daily): 52900 ng·h/mL
AUC ([1]; 1,200 mg/kg once daily): 69200 ng·h/mL

O=C(CCCCCCC(=O)Nc1ccccc1)NO [vorinostat]
PCL (plasma concentration limit) [4]: 0.19 µM and 0.2 µM
AUC ([1]; 200 mg/kg twice daily): 4.61 µM·h
